Reference: article PMC12914960, “Repurposing a detrimental antibody epitope as targeted therapeutics for sepsis and rheumatoid arthritis” (Military Medical Research, 2026)
Several values for one entry are separate records, joined by “and”; a condition that tells them apart may be missing. Equal values may be shown once. Where a SMILES comes first, the peptide text is derived from it.

Legend:
[1] = test system: CLP-induced serum cytokines and chemokines; experiment: Serum cytokines/chemokines after CLP, murine cytokine antibody arrays; assay type: in vivo, mouse; parameters: BLC / G-CSF / GM-CSF / IL-6 / KC / MCP-1 / MIP-2 / MIP-1 gama / PF-4 / sTNF-RI: unit not given here; details: for BLC / G-CSF / GM-CSF / IL-6 / KC / MCP-1 / MIP-1 gama / MIP-2 / PF-4 / sTNF-RI: serum 24 h, individual values
Description: (§1) Experimental sepsis was induced in BALB/c mice via CLP as previously described. […] The animals were randomly assigned to the control vehicle (n = 10 or n = 20) or experimental groups (n = 10 or n = 20). P2 (5.0 mg/kg), P2-1 (0.1 mg/kg or 1.0 mg/kg), or tetranectin N-terminal deletion mutant (ΔTN) (1.0 mg/kg) were administered intraperitoneally (i.p.) at the indicated time points, and survival rates were monitored. To elucidate P2-1’s protective mechanisms, a separate group of BALB/c mice (n = 4) underwent CLP and received P2-1 (1.0 mg/kg) at 2 h and 20 h post-CLP. At 24 h post-CLP, the animals were euthanized, blood was collected, and serum cytokines and chemokines were measured via murine cytokine antibody arrays as previously described. More details are presented in Additional file 1: Methods.
The levels of cytokines and chemokines in mouse serum and joint tissue lysates, or human PBMC culture supernatants, were determined via murine or human cytokine antibody arrays (e.g., Cat. #AAM-CYM-3–8 or Cat. #AAH-CYT-3–8, RayBiotech Inc., Norcross, GA, USA) as previously described. For the sepsis model, blood samples were collected from the mice (n = 4) at 24 h post-CLP. For the CAIA model, soft tissues from the hindpaw and ankle joints were carefully harvested from normal (n = 2) and CAIA (n = 4) mice using a previously established protocol. Briefly, 0.5 g of fresh soft tissue was cut into 3 mm pieces and mixed with 400 µl of a hypertonic solution (500 ml of PBS with 4.5 g of NaCl and 2 × protease inhibitor cocktail) in a 10 ml syringe. Mechanical extrusion, involving 30 rapid back-and-forth movements of the plunger, was then performed. The expelled extracellular fluid was collected, immediately aliquoted, and stored at −20 °C until analysis. Cell-conditioned medium was collected from PBMC cultures after 16 h of stimulation. Arrays were performed according to the manufacturer’s protocol, followed by chemiluminescent detection and densitometric quantification as previously described.
BALB/c mice subjected to CLP-induced sepsis received P2-1 (0.1 or 1.0 mg/kg) intraperitoneally twice, at 2 h and 20 h post-CLP. At 24 h post-CLP, the animals were sacrificed, and blood was harvested for cytokine and chemokine measurements via cytokine antibody arrays. ^*P < 0.05 vs. the negative control (“- CLP”); ^#P < 0.05 vs. the positive control (“ + CLP”) group, non-parametric Kruskal-Wallis ANOVA test. CLP cecal ligation and puncture, BLC B-lymphocyte chemoattractant, CCL C–C motif chemokine ligand, CXCL C-X-C motif chemokine ligand, IL interleukin, G-CSF granulocyte colony-stimulating factor, KC keratinocyte-derived chemokine, GRO growth-regulated oncogene, MIP macrophage inflammatory protein, PF platelet factor, sTNFR soluble tumor necrosis factor receptor

[2] = test system: CLP-induced sepsis in BALB/c mice; experiment: Septic survival after cecal ligation and puncture (CLP); assay type: in vivo, mouse; details: i.p.
Description: as §1
For these preclinical studies, animals were random ly assigned to experimental groups and treated with P2, P2-1, or a pCTS-L-neutralizing mAb2 according to the indicated dosing regimens. Outcomes, including septic survival rates, arthritis severity, pain sensitivity, and joint tissue histology scores, were collected under blinded experiment al conditions. The study d esign and sample si zes fo r each exp eriment are d etailed in the figure legends. No data, including outlier values, were excluded. For skewed data, outliers were defined via the interquartile range (IQR) method as any value below Q 1 –(1.5 × IQR) or above Q 3 + (1.5 × IQR). For normally distributed data, outliers were defined via the Z-score method as any value with an absolute Z-score greater than 2 or 3. The primary data are reported in Additional file 4. All the reagent sources are listed in Additional file 1: Table S1 .
Cecal ligation and puncture (CLP) sepsis model […]
screening. c Expression and purification of recombinant full-length human TN (residues 1 – 181) and its N-terminal deletion mutant ( ΔTN, residues 45 – 181). […] Recombinant Δ TN was given intraperitoneally at 24 h and 48 h post-C L P, and animal survival rates were monitored. *P < 0.0 5. […]

[3] = CLP + P2-1 0.1 mg/kg, 0.1 mg/kg

`CCCC[C@H](NC(=O)[C@H](Cc1c[nH]cn1)NC(=O)[C@@H](NC(=O)[C@H](CCCCN)NC(=O)[C@@H](N)[C@@H](C)O)C(C)C)C(=O)N[C@@H](CCCCN)C(=O)N[C@@H](CO)C(=O)N[C@@H](Cc1ccccc1)C(=O)N[C@@H](CC(C)C)C(=O)N[C@@H](C)C(=O)N[C@@H](Cc1ccccc1)C(=O)N[C@@H](CCC(N)=O)C(=O)N[C@H](C(=O)N[C@@H](CCCCN)C(=O)N[C@H](C(=O)O)[C@@H](C)O)[C@@H](C)O` [P2-1] (HELM PEPTIDE1{T.K.V.H.[Nle].K.S.F.L.A.F.Q.T.K.T}$$$$V2.0; N-terminus and C-terminus assumed) was tested, and the BLC ([1]; CLP + P2-1 0.1 mg/kg i.p. 2 h and 20 h post-CLP, 0.1 mg/kg) was 257.4 and 202.1 and 204.2 and 224.3, the G-CSF [1, 3] was 161.4 and 173.4 and 290.4 and 305.7 and the GM-CSF [1, 3] was 23.2 and 56 and 52.8 and 13.6. For the same compound, the IL-6 [1, 3] was 59.36 and 56.19 and 57.95 and 55.32, the KC [1, 3] was 128.7 and 116.3 and 31.9 and 105.9 and the MCP-1 [1, 3] was 25.4 and 25.6 and 31.2 and 21.8. The MIP-1 gama [1, 3] was 280.3 and 263.7 and 278.8 and 275.6, the MIP-2 [1, 3] was 203.2 and 193.1 and 174.2 and 159.2 and the PF-4 [1, 3] was 302.3 and 268.3 and 285.4 and 298.4. For the same compound, the sTNF-RI [1, 3] was 143.4 and 116.1 and 179.9 and 149.3, the BLC ([1]; CLP + P2-1 1.0 mg/kg i.p. 2 h and 20 h post-CLP, 1 mg/kg) was 42.8 and 33.1 and 30.9 and 35.4 and the G-CSF ([1]; CLP + P2-1 1.0 mg/kg, 1 mg/kg) was 111.9 and 128.7 and 120.4 and 100.4. For the same compound, the GM-CSF ([1]; CLP + P2-1 1.0 mg/kg, 1 mg/kg) was 0.79 and 1.5 and 1.2 and 3.4, the IL-6 ([1]; CLP + P2-1 1.0 mg/kg, 1 mg/kg) was 16.8 and 16.2 and 14.3 and 20.4 and the KC ([1]; CLP + P2-1 1.0 mg/kg, 1 mg/kg) was 151.9 and 155 and 10.5 and 15.5. The MCP-1 ([1]; CLP + P2-1 1.0 mg/kg, 1 mg/kg) was 6.8 and 7.9 and 7.4 and 5.2, the MIP-1 gama ([1]; CLP + P2-1 1.0 mg/kg, 1 mg/kg) was 128.6 and 137.5 and 54.5 and 68.8 and the MIP-2 ([1]; CLP + P2-1 1.0 mg/kg, 1 mg/kg) was 172.1 and 177.3 and 14.9 and 12.4. For the same compound, the PF-4 ([1]; CLP + P2-1 1.0 mg/kg, 1 mg/kg) was 109.2 and 118.3 and 114.4 and 64.9, the sTNF-RI ([1]; CLP + P2-1 1.0 mg/kg, 1 mg/kg) was 21.5 and 32.7 and 198.2 and 143.4 and the “sepsis-induced systemic cytokines/chemokines, in words” value ([1]; P2-1 i.p. at 2 h and 20 h post-CLP, blood at 24 h, BLC, G-CSF, IL-6, KC, MIP-1γ, MIP-2, PF-4, sTNFRI) was “significantly reduced sepsis-induced systemic accumulation”. For the same compound, the “septic survival, in words” value ([2]; P2-1 0.1 mg/kg at 2, 20, 28, 44, and 52 h post-CLP) was “conferred significant protection against sepsis” and the “septic survival, in words” value ([2]; P2-1 1.0 mg/kg at 24 h and 48 h post-CLP) was “potent protection against lethal sepsis even with delayed therapeutic administration”.
